Data published in PubChem BioAssay (NCI).
Several values for one entry are separate records, joined by “and”; a condition that tells them apart may be missing. Equal values may be shown once.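 Interpolation was linear, between the two tested concentrations surrounding the appropriate level; five concentrations were tested over 48 hours in 96-well plates. Here, GI50 denotes the concentration required for 50% inhibition of growth. TGI denotes the concentration required for complete inhibition of growth.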

What follows are compounds tested on RXF-631 renal (assay: DTP human tumour cell line panel, 48 h).

| SMILES | TGI [µM] | GI50 [µM] |
| --- | --- | --- |
| COc1ccc(C(=O)O/N=C2\CCCC\C2=C/c2ccccc2)cc1 | > 100 |  |
| COc1ccc(NC(=O)CC/C(CC(=O)c2ccco2)=N/Nc2ccc([N+](=O)[O-])cc2[N+](=O)[O-])cc1 | > 100 |  |
| CCCCN(CCCC)C(=Nc1ccccc1)N(CCCC)CCCC | 26.2 |  |
| O=C(Nc1nc2ncn(CCOC(=O)c3ccccc3)c2c(=O)[nH]1)c1ccccc1 | > 100 |  |
| CC(C)NC(=O)OCc1nnn2c1C(OC(=O)NC(C)C)CC2 (stereo not drawn) | > 100 |  |
| CCOC(=O)C(C(=O)c1ccccc1-c1ccccc1C(=O)O)=P(c1ccccc1)(c1ccccc1)c1ccccc1 | > 100 |  |
| COC(=O)C1=CC(=O)C(C(=O)Nc2ccc(OC)cc2)C(c2ccccc2)O1 (stereo not drawn) | > 83.6 |  |
| c1ccc([CH2][Sn]([CH2]c2ccccc2)([S]c2cccc3cccnc23)[S]c2cccc3cccnc23)cc1 | 0.552 | 0.225 |
| CC(=O)OCC1OC(n2cc(F)c(=O)[nH]c2=O)C(OC(C)=O)C1OC(C)=O (stereo not drawn) | > 100 |  |
| CCc1ccc(Cc2ccc(CC)c(NC(=O)C(=O)Cc3nc4ccccc4nc3C)c2CC)c(CC)c1NC(=O)C(=O)Cc1nc2ccccc2nc1C | > 100 |  |
| N#Cc1c([N+](=O)[O-])cc(C(F)(F)F)cc1[N+](=O)[O-] | 27.3 |  |
| [N-]=[N+]=Nc1ccc(S(=O)(=O)Oc2cc(OS(=O)(=O)c3ccc(N=[N+]=[N-])cc3)cc(OS(=O)(=O)c3ccc(N=[N+]=[N-])cc3)c2)cc1 | > 100 |  |
| O=C(CC(O)(c1ccccc1)c1ccc(Cl)cc1)NC(=O)c1ccccc1O (stereo not drawn) | 74.8 |  |
| Cc1c(C(=O)/C=C/c2ccco2)[n+](=O)c2ccccc2n1[O-] | > 100 |  |

These compounds were tested on MDA-N (assay: DTP human tumour cell line panel, 48 h).

| SMILES | TGI | GI50 |
| --- | --- | --- |
| O=C(Nc1ccc(Cl)cc1)NS(=O)(=O)c1ccc2c(c1)CCC2 | > 100 µM |  |
| N/C(=N\N=C\c1ccc2c(c1)OCO2)NO | > 100 µM |  |
| CC/C(=C(\c1ccccc1)c1ccc(OCCN(C)C)cc1)c1ccccc1 | > 25 µM and 8.31 µM and 9.59 µM | > 25 µM and 6.53 µM |
| C1=C[C@@H]2c3ccc4cnccc4c3NC[C@@H]2C1 | > 100 µM |  |
| COc1c2occc2c(OC)c2c(=O)c(S(=O)(=O)NC(=O)Nc3ccc(Cl)cc3)coc12 | > 10 µM |  |
| O=C(Nc1nc2ncn(CCOC(=O)c3ccccc3)c2c(=O)[nH]1)c1ccccc1 | 7.89 µM |  |
| COc1c(O)c2ccccc2c2cc(O)ccc12 | 2.57 µM |  |
| CCOP1(=O)OCC2OC(n3cnc4c(N)ncnc43)C(O)C2O1 (stereo not drawn) | > 100 µM |  |
| COC1CC(OC2OC(CO)C(O)C(O)C2O)/C(=C\C#N)C(O)C1OC (stereo not drawn) | > 100 µM |  |
| NC(=O)C/C=C/CC(N)=O | > 100 µM |  |
| O=P(O)(O)OC1C(OP(=O)(O)O)C(OP(=O)(O)O)C(OP(=O)(O)O)C(OP(=O)(O)O)C1OP(=O)(O)O (stereo not drawn) | > 2000 µM | > 2000 µM |
| Cn1ccnc1CCc1ccc(F)cc1F | > 100 µM |  |
| COc1ccc(C2SC(N)=Nc3c2c(C)nn3C(=O)c2ccncc2)cc1 (stereo not drawn) | > 100 µM |  |
| CC1(CCCC2(C)CCNC2=O)OCCO1 (stereo not drawn) | > 10 µM |  |
| CC(=O)OCC1OC(n2cc(F)c(=O)[nH]c2=O)C(OC(C)=O)C1OC(C)=O (stereo not drawn) | > 56.2 µM |  |
| O=c1c(Cl)nsnc1Cl | 36.9 µM |  |
| [O-][n+]1onc2c3nn(-c4ccccc4)nc3ccc21 | > 100 µM |  |
| Nc1nc2nc3c(nc2c(=O)[nH]1)CN(c1ccc(C(=O)O)cc1)C3=O | > 100 µM |  |
| CCc1nc(N)nc(N)c1-c1ccc(Cl)cc1 | > 100 µM |  |
| Cc1cc(O)c2c(c1)C[C@@H](O)C1=C2C(=O)c2c(O)ccc(OC3CC(O)C(OC4CC(OC5CCC(OC6CC(O)C(OC7CC(OC8CCC(O)C(C)O8)C(O)C(C)O7)C(C)O6)C(C)O5)C(O)C(C)O4)C(C)O3)c2C1=O (stereo partly drawn) | 0.211 µM and 0.387 µM and 0.562 µM | 0.207 µM and 0.24 µM |
